Tests used:
[1] = NMR analysis for residual secondary or tertiary structure; assay type: physicochemical; details: water solution
Experimental: NMR was then used to check for residual secondary or tertiary structure. Compared to other spectroscopical approaches, this technique has the advantage that it provides positional information along the sequence.
Peptides were examined for tertiary and/or secondary structure by one and two-dimensional nuclear magnetic resonance (NMR) on a UNITY VARIAN 600 MHz spectrometer equipped with z-shielded gradient coils using 0.8-1.0 mM samples in 90% H2O/10% D2O, 20 mM potassium phosphate buffer pH 7.0, at 20° C. […] Mixing times used were 70 ms and 150 or 200 ms for TOCSY and NOESY experiments, respectively.
The absence of ring current shifted peaks in the region of the spectra below 0.5 ppm typical of well folded proteins is also a feature common to the spectra of the Bet v 1 peptides (data not shown). […] This peptide (P5), that in the Bet v 1 structure spans the whole C-terminal helix probably tends to form helical structures that aggregate in water solution.

[2] = system: IgE antibodies in sera from birch pollen allergic patients; assay: ELISA detection of peptide- and rBet v 1-specific IgE antibodies; assay type: binding, human
Procedure, shortened: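 IgE binding detected by 1:1000 alkaline-phosphatase mouse monoclonal anti-human IgE after overnight 4 °C incubation with 1:3-diluted sera. Sera came from 60 birch pollen allergic patients (25 male, 35 female, age 19–60) and a non-atopic control.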

[3] = system: birch pollen allergic patients; assay: Skin prick testing of allergic patients; assay type: in vivo, human; details: 100 μg/ml
Experimental: SPTs were performed on the individuals forearms as described ([…]. et al. (1997) J. Clin Invest. 99, 1673-168; Dreborg S: (1989) J. Am. Acad. DerMatol. 21, 820-821). […] In addition standardized skin prick solutions (birch pollen extract and histamine) (Allergopharma, Reinbek, Germany) were tested. Reactions were recorded 20 minutes after SPT by photography and by transferring the ballpoint pen-surrounded wheal area with a scotch tape to paper.

## CKAEQVKASKEMGETLLRAVESYLLAHSDAYN [Peptide P5, Bet v 1-derived synthetic peptide, position aa 130-160, one cysteine added]
[1]
  aggregation (NMR): unusually broad resonances suggesting aggregation
[2]; serum of NHS, non-allergic control individual
  IgE (OD): — (Dashes indicate reactivities below the cut-off level (OD=0.050))
[2]; serum of patient 1
  IgE (OD): — (Dashes indicate reactivities below the cut-off level (OD=0.050))
[2]; serum of patient 2
  IgE (OD): — (Dashes indicate reactivities below the cut-off level (OD=0.050))
[2]; serum of patient 3
  IgE (OD): — (Dashes indicate reactivities below the cut-off level (OD=0.050))
[2]; serum of patient 4
  IgE (OD): — (Dashes indicate reactivities below the cut-off level (OD=0.050))
[2]; serum of patient 5
  IgE (OD): — (Dashes indicate reactivities below the cut-off level (OD=0.050))
[2]; serum of patient 6
  IgE (OD): — (Dashes indicate reactivities below the cut-off level (OD=0.050))
[2]; serum of patient 7
  IgE (OD): — (Dashes indicate reactivities below the cut-off level (OD=0.050))
[2]; serum of patient 8
  IgE (OD): — (Dashes indicate reactivities below the cut-off level (OD=0.050))
[2]; serum of patient 9
  IgE (OD): — (Dashes indicate reactivities below the cut-off level (OD=0.050))
[2]; serum of patient 10
  IgE (OD): — (Dashes indicate reactivities below the cut-off level (OD=0.050))
[2]; serum of patient 11
  IgE (OD): — (Dashes indicate reactivities below the cut-off level (OD=0.050))
[2]; serum of patient 12
  IgE (OD): — (Dashes indicate reactivities below the cut-off level (OD=0.050))
[2]; serum of patient 13
  IgE (OD): — (Dashes indicate reactivities below the cut-off level (OD=0.050))
[2]; serum of patient 14
  IgE (OD): — (Dashes indicate reactivities below the cut-off level (OD=0.050))
[2]; serum of patient 15
  IgE (OD): — (Dashes indicate reactivities below the cut-off level (OD=0.050))
[2]; serum of patient 16
  IgE (OD): — (Dashes indicate reactivities below the cut-off level (OD=0.050))
[2]; serum of patient 17
  IgE (OD): — (Dashes indicate reactivities below the cut-off level (OD=0.050))
[2]; serum of patient 18
  IgE (OD): — (Dashes indicate reactivities below the cut-off level (OD=0.050))
[2]; serum of patient 19
  IgE (OD): — (Dashes indicate reactivities below the cut-off level (OD=0.050))
[2]; serum of patient 20
  IgE (OD): — (Dashes indicate reactivities below the cut-off level (OD=0.050))
[2]; serum of patient 21
  IgE (OD): — (Dashes indicate reactivities below the cut-off level (OD=0.050))
[2]; serum of patient 22
  IgE (OD): — (Dashes indicate reactivities below the cut-off level (OD=0.050))
[2]; serum of patient 23
  IgE (OD): — (Dashes indicate reactivities below the cut-off level (OD=0.050))
[2]; serum of patient 24
  IgE (OD): — (Dashes indicate reactivities below the cut-off level (OD=0.050))
[2]; serum of patient 25
  IgE (OD): — (Dashes indicate reactivities below the cut-off level (OD=0.050))
[2]; serum of patient 26
  IgE (OD): — (Dashes indicate reactivities below the cut-off level (OD=0.050))
[2]; serum of patient 27
  IgE (OD): — (Dashes indicate reactivities below the cut-off level (OD=0.050))
[2]; serum of patient 28
  IgE (OD): — (Dashes indicate reactivities below the cut-off level (OD=0.050))
[2]; serum of patient 29
  IgE (OD): — (Dashes indicate reactivities below the cut-off level (OD=0.050))
[2]; serum of patient 30
  IgE (OD): — (Dashes indicate reactivities below the cut-off level (OD=0.050))
[2]; serum of patient 31
  IgE (OD): — (Dashes indicate reactivities below the cut-off level (OD=0.050))
[2]; serum of patient 32
  IgE (OD): — (Dashes indicate reactivities below the cut-off level (OD=0.050))
[2]; serum of patient 33
  IgE (OD): — (Dashes indicate reactivities below the cut-off level (OD=0.050))
[2]; serum of patient 34
  IgE (OD): — (Dashes indicate reactivities below the cut-off level (OD=0.050))
[2]; serum of patient 35
  IgE (OD): — (Dashes indicate reactivities below the cut-off level (OD=0.050))
[2]; serum of patient 36
  IgE (OD): — (Dashes indicate reactivities below the cut-off level (OD=0.050))
[2]; serum of patient 37
  IgE (OD): — (Dashes indicate reactivities below the cut-off level (OD=0.050))
[2]; serum of patient 38
  IgE (OD): — (Dashes indicate reactivities below the cut-off level (OD=0.050))
[2]; serum of patient 39
  IgE (OD): — (Dashes indicate reactivities below the cut-off level (OD=0.050))
[2]; serum of patient 40
  IgE (OD): — (Dashes indicate reactivities below the cut-off level (OD=0.050))
[2]; serum of patient 41
  IgE (OD): — (Dashes indicate reactivities below the cut-off level (OD=0.050))
[2]; serum of patient 42
  IgE (OD): — (Dashes indicate reactivities below the cut-off level (OD=0.050))
[2]; serum of patient 43
  IgE (OD): — (Dashes indicate reactivities below the cut-off level (OD=0.050))
[2]; serum of patient 44
  IgE (OD): — (Dashes indicate reactivities below the cut-off level (OD=0.050))
[2]; serum of patient 45
  IgE (OD): — (Dashes indicate reactivities below the cut-off level (OD=0.050))
[2]; serum of patient 46
  IgE (OD): — (Dashes indicate reactivities below the cut-off level (OD=0.050))
[2]; serum of patient 47
  IgE (OD): — (Dashes indicate reactivities below the cut-off level (OD=0.050))
[2]; serum of patient 48
  IgE (OD): — (Dashes indicate reactivities below the cut-off level (OD=0.050))
[2]; serum of patient 49
  IgE (OD): — (Dashes indicate reactivities below the cut-off level (OD=0.050))
[2]; serum of patient 50
  IgE (OD): — (Dashes indicate reactivities below the cut-off level (OD=0.050))
[2]; serum of patient 51
  IgE (OD): — (Dashes indicate reactivities below the cut-off level (OD=0.050))
[2]; serum of patient 52
  IgE (OD): — (Dashes indicate reactivities below the cut-off level (OD=0.050))
[2]; serum of patient 53
  IgE (OD): — (Dashes indicate reactivities below the cut-off level (OD=0.050))
[2]; serum of patient 54
  IgE (OD): — (Dashes indicate reactivities below the cut-off level (OD=0.050))
[2]; serum of patient 55
  IgE (OD): — (Dashes indicate reactivities below the cut-off level (OD=0.050))
[2]; serum of patient 56
  IgE (OD): — (Dashes indicate reactivities below the cut-off level (OD=0.050))
[2]; serum of patient 57
  IgE (OD): — (Dashes indicate reactivities below the cut-off level (OD=0.050))
[2]; serum of patient 58
  IgE (OD): — (Dashes indicate reactivities below the cut-off level (OD=0.050))
[2]; serum of patient 59
  IgE (OD): — (Dashes indicate reactivities below the cut-off level (OD=0.050))
[2]; serum of patient 60
  IgE (OD): — (Dashes indicate reactivities below the cut-off level (OD=0.050))
[3]; individual 1
  mean wheal diameter: 0 mm
[3]; individual 2
  mean wheal diameter: 0 mm
[3]; individual 3
  mean wheal diameter: 0 mm
[3]; individual 4
  mean wheal diameter: 0 mm
[3]; individual 5
  mean wheal diameter: 0 mm
[3]; individual 6 (allergic, without birch pollen allergy)
  mean wheal diameter: 0 mm
